Measured values reported in ChEMBL document CHEMBL1201862, “PubChem BioAssay data set” (2004).
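Results reflect a 48-hour exposure of cells in 96-well plates to compound at five concentrations. GI50 marks 50% less growth.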 Activity calls are given as the source filed them. Cut-off read from the data, not from the text of the source: active = GI50 up to about 1.1 µM and inactive = higher.

Columns and labels:
Test in all cases: NCI anticancer screen, dose series, 48 h
DLD-1 = system: DLD-1
DMS-114 = system: DMS-114
DMS-273 = system: DMS-273
HOP-18 = system: HOP-18
LXFL 529 = system: LXFL 529
M19-MEL = system: M19-MEL
RXF 631 = system: RXF 631
SNB-78 = system: SNB-78
XF498 = system: XF498

Measured: GI50

O=C(O)/C(Cl)=C(\Cl)C(=O)NC1C2CC3CC(C2)CC1C3 (centres undefined)
inactive: DLD-1 > 100 µM | DMS-114 > 100 µM | DMS-273 > 100 µM | HOP-18 > 100 µM | LXFL 529 > 100 µM | M19-MEL > 100 µM | RXF 631 61 µM | SNB-78 > 100 µM | XF498 > 100 µM
